In US20260159536A1, “AKR1C3-ACTIVATED DNA ALKYLATING AGENT, AND MEDICAL APPLICATION THEREOF” (ASCENTAWITS PHARMACEUTICALS, LTD., priority 2021, published 2026):
Read-outs that look alike come from different tables or passages of the source.

Key:
[1] = tested on: H460 cells; test: Inhibition of H460 cancer cell proliferation (CTG, 72 h); type: cell-based; settings: Homo sapiens, NCI-H460
Procedure: If not otherwise specified, IC50 values were measured by the following experimental methods:
c) The cell suspension was added to 96-well plate with 100 μL per well and 2000 cells/well of cell density.
a) Cells were plated for 24 hours, and then the compounds acted singly. 99 μL of growth medium was supplemented per well, and then 1 μL of 200× compound was added, gently shaken to ensure uniform mixing, and then placed in a 37° C., 5% CO2 incubator.
b) The cell plate was placed in the incubator for 72 hours.
b) 100 μL of CTG reagent (CelltiterGlo kit) was added to each well, the plate was placed in a rapid oscillator and shaken for 2 minutes, and then placed at room temperature for 30 minutes away from light.
c) The chemiluminescence signal value was read with Envision instrument.
The IC50 was calculated using GraphPad Prism 8 software and the IC50 (half inhibitory concentration) of the compounds was obtained using the following non-linear fitting formula: […]

[2] = tested on: NCI-H1944; test: AKR1C3-dependent cytotoxicity, NSCLC cell line NCI-H1944; type: cell-based; settings: Homo sapiens
Procedure: (§1) The tested compound was then added. The compound was dissolved in 100% DMSO at 200 times of the desired final test concentration. When the medicament was added, the compound was further diluted to 4 times of the desired final test concentration by using the complete medium. 50 μL of aliquots of the compound with specific concentration were added to the microwells containing 150 μL of medium, and then the final medicament concentration was obtained. […] The medicament was then washed. […] After the incubation was finished, the Alamar Blue was used to analyze and quantify the living cells.

[3] = tested on: NCI-H2228; test: AKR1C3-dependent cytotoxicity, NSCLC cell line NCI-H2228; type: cell-based; settings: Homo sapiens
Procedure: as §1

[4] = tested on: NCIH1755; test: AKR1C3-dependent cytotoxicity, NSCLC cell line NCIH1755; type: cell-based; settings: Homo sapiens, NCI-H1755
Procedure: as §1

[5] = tested on: NCI-H1563; test: AKR1C3-dependent cytotoxicity, NSCLC cell line NCI-H1563; type: cell-based; settings: Homo sapiens
Procedure: as §1

[6] = tested on: NCI-H1792; test: AKR1C3-dependent cytotoxicity, NSCLC cell line NCI-H1792; type: cell-based; settings: Homo sapiens
Procedure: as §1

[7] = tested on: CAL12T; test: AKR1C3-dependent cytotoxicity, NSCLC cell line CAL12T; type: cell-based; settings: Homo sapiens, CAL-12T
Procedure: as §1

[8] = tested on: NCIH2106; test: AKR1C3-dependent cytotoxicity, NSCLC cell line NCIH2106; type: cell-based
Procedure: as §1

[9] = tested on: NCI-H522; test: AKR1C3-dependent cytotoxicity, NSCLC cell line NCI-H522; type: cell-based; settings: Homo sapiens
Procedure: as §1

[10] = tested on: NCI-H23; test: AKR1C3-dependent cytotoxicity, NSCLC cell line NCI-H23; type: cell-based; settings: Homo sapiens
Procedure: as §1

[11] = tested on: HuPrime model LI6643 human liver cancer; test: In vivo pharmacodynamics, liver cancer LI6643 PDX model (Compound A, Sorafenib, AST-3424; section 4.7); design: species or system BALB/c nude mice; settings: for Relative tumor volume (x ± S) / T/C (%) / TGI (%) / Tumor volume (x ± S): 2 weeks off, QDx5; for Tumor volume (x ± S): in mm³
Procedure: Experiment Instruction: BALB/c nude mice were subcutaneously inoculated with HuPrime® model LI6643 tumor blocks to establish a subcutaneous grafted tumor model of human liver cancer. […] The efficacy was evaluated according to the relative tumor inhibition rate TGI (%), and the safety was evaluated according to the change in body weight and the death of the animals.

[12] = molecular target: T1, P-gp (Homo sapiens, UniProt P08183); test: P-gp substrate evaluation, MDCKII-MDR1 penetration test with or without Verapamil; type: in vitro ADME
T1 construct: expressed in transfected cells; host or cells: MDCKII-MDR1 cells
Procedure: The conditions of the incubator were set as 37° C., 5% CO2, and 95% of the relative humidity.
After that, the MDCKII-MDR1 cells can be used for the penetration test.
(1) MDCKII-MDR1 transwell culture plate was taken out from the incubator.
(6) The upper and lower transportations were pooled and then incubated at 37° C. for 2 h.
After the sample tubes were vortexed for 10 min, and centrifuged at 3220 g for 30 min. […] Each sample was adopted to the three parallel incubation.
Efflux Ratio was calculated by the following formula: […]
Recovery was calculated by the following formula: […]

[13] = Liver microsome stability, human; type: in vitro ADME; settings: for Percentage remaining after 30 minutes: Human liver microsomes
Procedure: (§2) 1) Two individual experiments were performed.
(§3) All experiments were performed in duplicate.

[14] = Liver microsome stability, monkey; type: in vitro ADME; settings: for Percentage remaining after 30 minutes: Monkey liver microsomes
Procedure: as §2, §3

[15] = Liver microsome stability, mouse; type: in vitro ADME; settings: for Percentage remaining after 30 minutes: Mouse liver microsomes
Procedure: as §2, §3

[16] = 0.5 mg/kg i.v. QDx5, 2 days off, Day 21
[17] = 2 mg/kg i.v. QDx5, 2 days off, Day 21
[18] = Compound A 1 mg/kg i.v. QDx5, 2 days off, Day 21

T1 sequence (P08183 whole entry): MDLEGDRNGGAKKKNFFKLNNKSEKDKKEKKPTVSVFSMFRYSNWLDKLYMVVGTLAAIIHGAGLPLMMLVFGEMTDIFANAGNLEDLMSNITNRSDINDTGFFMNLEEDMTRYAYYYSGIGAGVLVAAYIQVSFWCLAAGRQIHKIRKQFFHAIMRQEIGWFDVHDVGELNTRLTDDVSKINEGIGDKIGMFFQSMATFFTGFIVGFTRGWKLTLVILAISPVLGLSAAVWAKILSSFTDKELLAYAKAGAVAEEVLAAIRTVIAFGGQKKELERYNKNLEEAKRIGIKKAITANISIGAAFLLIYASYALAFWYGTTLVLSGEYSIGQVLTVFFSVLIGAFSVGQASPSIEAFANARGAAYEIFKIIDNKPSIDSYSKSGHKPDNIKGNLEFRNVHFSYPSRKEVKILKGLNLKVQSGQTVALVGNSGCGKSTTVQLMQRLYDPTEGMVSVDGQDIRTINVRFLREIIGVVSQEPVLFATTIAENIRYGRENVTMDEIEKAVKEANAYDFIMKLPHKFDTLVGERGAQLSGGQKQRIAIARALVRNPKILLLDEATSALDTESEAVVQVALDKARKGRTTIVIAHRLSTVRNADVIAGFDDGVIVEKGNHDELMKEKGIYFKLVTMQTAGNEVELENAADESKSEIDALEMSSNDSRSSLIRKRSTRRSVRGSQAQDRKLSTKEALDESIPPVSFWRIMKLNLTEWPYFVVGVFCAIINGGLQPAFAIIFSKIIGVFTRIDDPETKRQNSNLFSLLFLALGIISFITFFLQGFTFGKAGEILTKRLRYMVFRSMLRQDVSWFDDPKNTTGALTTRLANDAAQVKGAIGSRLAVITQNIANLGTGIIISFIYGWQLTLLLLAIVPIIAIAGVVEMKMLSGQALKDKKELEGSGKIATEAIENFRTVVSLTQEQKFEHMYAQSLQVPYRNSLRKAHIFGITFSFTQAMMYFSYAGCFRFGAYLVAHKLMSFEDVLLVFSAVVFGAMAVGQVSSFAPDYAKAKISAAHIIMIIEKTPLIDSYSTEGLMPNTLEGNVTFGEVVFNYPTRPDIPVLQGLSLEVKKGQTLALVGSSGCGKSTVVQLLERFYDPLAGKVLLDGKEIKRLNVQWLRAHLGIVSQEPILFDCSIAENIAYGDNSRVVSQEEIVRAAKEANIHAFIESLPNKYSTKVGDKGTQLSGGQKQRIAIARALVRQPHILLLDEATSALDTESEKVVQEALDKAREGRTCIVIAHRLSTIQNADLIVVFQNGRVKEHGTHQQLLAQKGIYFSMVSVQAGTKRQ

O=[N+]([O-])c1ccc(C(OP(=O)(N2CC2)N2CC2)C(F)(F)F)cc1Oc1ccc(-c2ccc(F)cc2)c(F)c1 (racemic) [Compound A]
IC50 [1]: 6.87 nM | IC50 [2]: 71.3 nM | IC50 [3]: 12.8 nM | IC50 [4]: 570 nM | IC50 [5]: 454 nM | IC50 [6]: 375 nM | IC50 [7]: 8080 nM | IC50 [8]: 6860 nM | IC50 [9]: 14100 nM | IC50 [10]: 11900 nM | Relative tumor volume (x ± S) [11, 16]: 1.84 ± 0.25 | T/C (%) [11, 16]: 38.12% | TGI (%) [11, 16]: 61.88% | Tumor volume (x ± S) [11, 16]: 242.85 ± 50.74 | Tumor volume ([11]; 0.5 mg/kg i.v., Day 0): 124.86 mm^3 | Tumor volume ([11]; 0.5 mg/kg i.v., Day 3): 239.56 mm^3 | Tumor volume ([11]; 0.5 mg/kg i.v., Day 7): 282.74 mm^3 | Tumor volume ([11]; 0.5 mg/kg i.v., Day 10): 266.35 mm^3 | Tumor volume ([11]; 0.5 mg/kg i.v., Day 14): 231.35 mm^3 | Tumor volume ([11]; 0.5 mg/kg i.v., Day 17): 241.82 mm^3 | Tumor volume ([11]; 0.5 mg/kg i.v., Day 21): 242.85 mm^3 | Tumor volume ([11]; 0.5 mg/kg i.v., Day 24): 173.56 mm^3 | Tumor volume ([11]; 0.5 mg/kg i.v., Day 28): 188.68 mm^3 | Relative tumor volume (x ± S) [11, 17]: 0.97 ± 0.14 | T/C (%) [11, 17]: 20.19% | TGI (%) [11, 17]: 79.81% | Tumor volume (x ± S) [11, 17]: 116.38 ± 20.17 | Tumor volume ([11]; 2 mg/kg i.v., Day 0): 124.40 mm^3 | Tumor volume ([11]; 2 mg/kg i.v., Day 3): 182.25 mm^3 | Tumor volume ([11]; 2 mg/kg i.v., Day 7): 182.74 mm^3 | Tumor volume ([11]; 2 mg/kg i.v., Day 10): 162.65 mm^3 | Tumor volume ([11]; 2 mg/kg i.v., Day 14): 137.87 mm^3 | Tumor volume ([11]; 2 mg/kg i.v., Day 17): 117.10 mm^3 | Tumor volume ([11]; 2 mg/kg i.v., Day 21): 116.38 mm^3 | Tumor volume ([11]; 2 mg/kg i.v., Day 24): 122.78 mm^3 | Tumor volume ([11]; 2 mg/kg i.v., Day 28): 95.87 mm^3 | Relative tumor volume (x ± S) [11, 18]: 1.44 ± 0.16 | T/C (%) [11, 18]: 29.91% | TGI (%) [11, 18]: 70.09% | Tumor volume (x ± S) [11, 18]: 174.86 ± 17.43 | Tumor volume ([11]; Compound A 1 mg/kg i.v., Day 0): 124.32 mm^3 | Tumor volume ([11]; Compound A 1 mg/kg i.v., Day 3): 205.79 mm^3 | Tumor volume ([11]; Compound A 1 mg/kg i.v., Day 7): 246.90 mm^3 | Tumor volume ([11]; Compound A 1 mg/kg i.v., Day 10): 225.40 mm^3 | Tumor volume ([11]; Compound A 1 mg/kg i.v., Day 14): 195.33 mm^3 | Tumor volume ([11]; Compound A 1 mg/kg i.v., Day 17): 191.98 mm^3 | Tumor volume ([11]; Compound A 1 mg/kg i.v., Day 21): 174.86 mm^3 | Tumor volume ([11]; Compound A 1 mg/kg i.v., Day 24): 217.19 mm^3 | Tumor volume ([11]; Compound A 1 mg/kg i.v., Day 28): 231.64 mm^3 | P-gp substrate ([12]; MDCKII-MDR1, with and without Verapamil): not substrates for Pgp | Papp A→B at 2 h ([12]; dog, MDCK-MDR1): 0.18 ×10⁻⁶ cm/s | Papp B→A at 2 h ([12]; dog, MDCK-MDR1): 0.24 ×10⁻⁶ cm/s | recovery at 2 h ([12]; dog, MDCK-MDR1, Verapamil 0 μM, read-out: Recovery (%) AP-BL): 5.03% | recovery at 2 h ([12]; dog, MDCK-MDR1, Verapamil 0 μM, read-out: Recovery (%) BL-AP): 4.34% | recovery at 2 h ([12]; dog, MDCK-MDR1, with Verapamil 100 μM, Verapamil 100 μM, read-out: Recovery (%) AP-BL): 5.7% | recovery at 2 h ([12]; dog, MDCK-MDR1, with Verapamil 100 μM, Verapamil 100 μM, read-out: Recovery (%) BL-AP): 12.6% | Percentage remaining after 30 minutes ([13]; with the addition of NADPH): 115.25% | Percentage remaining after 30 minutes ([13]; without the addition of NADPH): 111.93% | stability in liver microsomes ([13]; human): relatively stable | Percentage remaining after 30 minutes ([14]; with the addition of NADPH): 82.29% | Percentage remaining after 30 minutes ([14]; without the addition of NADPH): 81.30% | stability in liver microsomes ([14]; monkey): relatively stable | Percentage remaining after 30 minutes ([15]; with the addition of NADPH): 98.59% | Percentage remaining after 30 minutes ([15]; without the addition of NADPH): 104.30% | stability in liver microsomes ([15]; mouse): relatively stable
